Test results taken from article PMC6009863, “Symmetric molecules with 1,4-triazole moieties as potent inhibitors of tumour-associated lactate dehydrogenase-A” (Journal of Enzyme Inhibition and Medicinal Chemistry, 2017).
pIC50: −log10 of the molar value. Read-outs that look alike come from different tables or passages of the source.

Assays:
LDHA [1] = tested on: LDHA; set-up: method as in PMID 22417091; details: NMR and SPR fragment based hit identification series; read-out: IC50 (LDHA inhibition); cited from earlier work
LDHA [2] = tested on: LDHA; set-up: method as in PMID 23302067; details: fragment-based hit identification series; read-out: IC50 (LDHA inhibition); cited from earlier work
LDHA [3] = tested on: LDHA; set-up: method as in PMID 30108883; details: docking-based virtual screening hit; read-out: IC50 (LDHA inhibition potency in vitro); cited from earlier work
[4] = target: T1, recombinant human LDHA protein (Homo sapiens, UniProt P00338); test: LDHA inhibition assay (Lactate Dehydrogenase Assay Kit, colorimetric); type: biochemical; details: mean from three different assays, colorimetric assay measuring absorbance at 450 nm, errors ±5–10%
T1 construct: purchased Abcam ab93699
Description: All 15 symmetrical compounds were evaluated for their ability to inhibit LDHA, for the comparison galloflavin as a known isoform nonselective LDHA inhibitor[20] was used. Our choice of galloflavin was based on the fact that it is extensively studied as potent anticancer agents in recent years; additionally, galloflavin is already commercially available.
Lactate Dehydrogenase Assay Kit (Abcam, ab102526) and recombinant human LDHA protein (Abcam, ab93699) were used to assess the inhibitory effect of the tested compounds. First we generated a NADH standard curve for colorimetric detection by measuring the OD (450 nm) at different molar amounts of NADH. The linear regression equation of the curve was derivatized in Graphpad Prism. Tested compounds were dissolved in DMSO and their inhibitory activity was assessed at 140 and 300 μM strength. Galloflavin (Sigma, SML0776) at the same molar concentration was used as a known LDH inhibitor. The master reaction mix composed of LDH assay buffer and 10 ng human LDHA […] per reaction was prepared. Tested compounds were added and the final reaction volume was adjusted to 50 µL. Absorbance at 450 nm was taken after 2-3 minutes (T-initial) and continued every minute for 118 mins (T-final). The change in measurement over time (delta A450) was calculated as T-final minus T-initial. The amount of NADH generated by the assay between T-initial and T-final was deduced by comparing the A450 of each sample to the standard NADH standard curve. […]

Row | Compound | pIC50 [4] | further results
1 | CCCSc1nc2ccc(NC(=O)CCNC(=O)CCCc3ccc(CC(C(=O)O)C(=O)O)cc3)cc2s1 [A] |  | pIC50 (LDHA [1]): 6.57
2 | COc1cc(OC[C@@H](O)[C@@H](O)[C@H](O)[C@H](O)CNc2cc(F)cc(-c3ccc(C(=O)O)cn3)c2)c(Cl)cc1NC(=O)CSc1ccc(C(=O)O)cn1 [B] |  | pIC50 (LDHA [2]): 6.92
3 | CCc1cc(=O)c(O)c([C@@H](CC(N)=O)c2cc3ccccc3n(CC(C)C)c2=O)o1 [C] |  | pIC50 (LDHA [3]): 6.48
4 | NS(=O)(=O)c1ccc(NC(=O)Cn2cc(-c3cccc(-c4cn(CC(=O)Nc5ccc(S(N)(=O)=O)cc5)nn4)c3)nn2)cc1 [Compound 7a] | 3.89 | 
5 | O=C(Cn1cc(-c2cccc(-c3cn(CC(=O)Nc4ccc(C(=O)O)cc4)nn3)c2)nn1)Nc1ccc(C(=O)O)cc1 [Compound 7b] | 3.92 | melting point: 291 to 292 °C
6 | O=C(Cn1cc(-c2cccc(-c3cn(CC(=O)Nc4ccc([N+](=O)[O-])cc4)nn3)c2)nn1)Nc1ccc([N+](=O)[O-])cc1 [Compound 7c] | 3.76 | 
7 | NS(=O)(=O)c1ccc(CNC(=O)Cn2cc(-c3cccc(-c4cn(CC(=O)NCc5ccc(S(N)(=O)=O)cc5)nn4)c3)nn2)cc1 [Compound 11a] | 3.80 | 
8 | O=C(Cn1cc(-c2cccc(-c3cn(CC(=O)NCc4ccc(C(=O)O)cc4)nn3)c2)nn1)NCc1ccc(C(=O)O)cc1 [Compound 11b] | 3.81 | 
9 | NS(=O)(=O)c1ccc(NC(=O)Cn2cc(-c3cncc(-c4cn(CC(=O)Nc5ccc(S(N)(=O)=O)cc5)nn4)c3)nn2)cc1 [Compound 15a] | 3.87 | 
10 | O=C(Cn1cc(-c2cncc(-c3cn(CC(=O)Nc4ccc(C(=O)O)cc4)nn3)c2)nn1)Nc1ccc(C(=O)O)cc1 [Compound 15b] | 3.90 | 
11 | O=C(Cn1cc(-c2cncc(-c3cn(CC(=O)Nc4ccc([N+](=O)[O-])cc4)nn3)c2)nn1)Nc1ccc([N+](=O)[O-])cc1 [Compound 15c] | 3.81 | 
12 | NS(=O)(=O)c1ccc(CNC(=O)Cn2cc(-c3cncc(-c4cn(CC(=O)NCc5ccc(S(N)(=O)=O)cc5)nn4)c3)nn2)cc1 [Compound 16a] | 3.76 | 
13 | O=C(Cn1cc(-c2cncc(-c3cn(CC(=O)NCc4ccc(C(=O)O)cc4)nn3)c2)nn1)NCc1ccc(C(=O)O)cc1 [Compound 16b] | 3.93 | 
14 | COc1cc(-c2cn(CC(=O)Nc3ccc(S(N)(=O)=O)cc3)nn2)cc(-c2cn(CC(=O)Nc3ccc(S(N)(=O)=O)cc3)nn2)c1 [Compound 20a] | 3.78 | 
15 | COc1cc(-c2cn(CC(=O)Nc3ccc(C(=O)O)cc3)nn2)cc(-c2cn(CC(=O)Nc3ccc(C(=O)O)cc3)nn2)c1 [Compound 20b] | 3.90 | 
16 | COc1cc(-c2cn(CC(=O)Nc3ccc([N+](=O)[O-])cc3)nn2)cc(-c2cn(CC(=O)Nc3ccc([N+](=O)[O-])cc3)nn2)c1 [Compound 20c] | 3.79 | 
17 | COc1cc(-c2cn(CC(=O)NCc3ccc(S(N)(=O)=O)cc3)nn2)cc(-c2cn(CC(=O)NCc3ccc(S(N)(=O)=O)cc3)nn2)c1 [Compound 21a] | 3.76 | 
18 | COc1cc(-c2cn(CC(=O)NCc3ccc(C(=O)O)cc3)nn2)cc(-c2cn(CC(=O)NCc3ccc(C(=O)O)cc3)nn2)c1 [Compound 21b] | 3.89 | 
19 | O=c1oc2c(cc1O)oc(=O)c1cc(O)c(O)c(O)c12 [Galloflavin, reference compound] | 3.80 | 
